Marks after values point to notes of the source that are not given here.
Legend:
[1] = molecular target: T1, human FAAH (Homo sapiens, UniProt O00519); assay: FAAH assay, human FAAH enzyme inactivation (kinact/Ki); assay type: biochemical; settings: oleamide 50 μM, 30° C.; for hFAAH kinact/Ki: in vitro, pH 7.4; for kinact/KI: pH 7.4, in vitro, read-out: hFAAH kinact/Ki
T1 construct: made in house; host or cells: E. coli
T1 sequence (O00519 1-579): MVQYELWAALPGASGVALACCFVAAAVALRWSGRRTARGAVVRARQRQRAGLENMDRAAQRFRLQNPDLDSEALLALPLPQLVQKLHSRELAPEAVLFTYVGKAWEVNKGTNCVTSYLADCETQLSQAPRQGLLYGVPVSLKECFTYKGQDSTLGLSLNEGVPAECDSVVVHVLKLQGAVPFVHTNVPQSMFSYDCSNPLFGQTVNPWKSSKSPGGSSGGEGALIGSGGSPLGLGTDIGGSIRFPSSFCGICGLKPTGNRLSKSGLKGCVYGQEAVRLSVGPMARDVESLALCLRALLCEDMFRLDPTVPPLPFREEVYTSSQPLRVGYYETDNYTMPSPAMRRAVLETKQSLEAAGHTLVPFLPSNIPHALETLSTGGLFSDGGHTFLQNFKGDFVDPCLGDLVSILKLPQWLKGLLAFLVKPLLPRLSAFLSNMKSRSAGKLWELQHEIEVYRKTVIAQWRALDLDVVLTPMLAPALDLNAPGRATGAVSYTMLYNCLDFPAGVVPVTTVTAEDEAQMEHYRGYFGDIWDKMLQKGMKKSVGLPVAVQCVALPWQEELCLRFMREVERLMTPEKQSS
Outline: (§1)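 Oleamide hydrolysis by 1-4 nM purified E. coli-expressed FAAH (substrate 50 μM = Km) coupled to GDH/NADH, pH 7.4 phosphate, 7.5% DMSO and EtOH, 30° C; A340 followed 90 min. kobs from mono-exponential fits; kinact/Ki from kobs-versus-concentration slope, multiplied by two.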

[2] = molecular target: T2, rat FAAH (Rattus norvegicus, UniProt P97612); assay: FAAH assay, rat FAAH enzyme inactivation (kinact/Ki); assay type: biochemical; settings: oleamide 50 μM, 30° C.; for rFAAH kinact/Ki: in vitro, pH 7.4; for kinact/KI: pH 7.4, in vitro, read-out: rFAAH kinact/Ki
T2 construct: made in house; host or cells: E. coli
T2 sequence (P97612 1-579): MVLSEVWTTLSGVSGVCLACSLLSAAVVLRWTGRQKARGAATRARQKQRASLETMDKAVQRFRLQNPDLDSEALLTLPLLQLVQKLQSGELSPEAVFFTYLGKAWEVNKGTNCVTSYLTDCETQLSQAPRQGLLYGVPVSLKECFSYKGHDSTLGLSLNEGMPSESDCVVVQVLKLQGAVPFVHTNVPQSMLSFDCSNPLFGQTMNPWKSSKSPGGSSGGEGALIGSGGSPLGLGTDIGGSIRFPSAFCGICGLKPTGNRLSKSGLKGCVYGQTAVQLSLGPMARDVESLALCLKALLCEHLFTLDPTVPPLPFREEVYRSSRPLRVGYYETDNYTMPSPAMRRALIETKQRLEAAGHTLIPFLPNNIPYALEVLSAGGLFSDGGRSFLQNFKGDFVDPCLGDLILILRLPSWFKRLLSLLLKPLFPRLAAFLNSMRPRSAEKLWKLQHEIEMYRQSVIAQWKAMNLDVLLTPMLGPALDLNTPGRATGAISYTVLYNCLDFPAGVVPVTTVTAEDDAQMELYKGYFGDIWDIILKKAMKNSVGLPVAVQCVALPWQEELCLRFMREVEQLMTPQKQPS
Outline: as §1

[3] = tested on: Male Sprague-Dawley Rats; assay: In vivo Complete Freund's Adjuvant (CFA) efficacy assay, inhibition of allodynia; parameters: species or system rat; key: (+) indicates the test compound was determined to be efficacious at 3 mpk, oral dosing; (−) indicates the test compound was determined to not be efficacious at 3 mpk, oral dosing; settings: p < 0.05 vs vehicle group
Experimental: For additional information on the CFA efficacy assay, see Jayamanne et al., Brit. J. Pharmacol. 2006, 147, 281-288. Experiments were performed on adult Male Sprague-Dawley Rats (200 g-250 g). Inflammation was induced in the left hindpaw of the rat by an intra-plantar injection of 150 uL Complete Freund's Adjuvant (CFA) (SIGMA F5881). The CFA injection immediately induces local inflammation, paw swelling, and pain that persists for at least two weeks post-injection. Baseline paw withdrawal threshold (PWT) was measured to determine the percent inhibition of allodynia using a set of Von Frey Hairs on day 4 post injection as illustrated by the Dixon Up and Down Method (W. J. Dixon, Ann. Rev. Pharmacol. Toxicol. 1980, 20:441-462). […] Following Dose administration PWT threshold was evaluated again at four hours postdose. The Sprague-Dawley rats used in this assay were purchased from Harlan, 8520 Allison Pointe Blvd., Indianapolis, Ind., 46250, U.S.A. Sprague-Dawley rats are an outbred breed of albino rats first produced by the Sprague Dawley farms in Madison, Wis., U.S.A.
Percent Inhibition of Allodynia was determined by the formula: […]
ΔPWT measurements were averaged for each treatment group and statistical comparisons between groups were made using ANOVA and Dunnett's two-tailed test. […]

[4] = 3 mpk, oral dosing, PWT four hours postdose

| hFAAH kinact/Ki [1] | rFAAH kinact/Ki [2] | kinact/KI [1] | kinact/KI [2] | SMILES | CFA Efficacy [3, 4] | CFA Efficacy ([3]; 25 mpk, intraperitoneal dosing) |
| --- | --- | --- | --- | --- | --- | --- |
| 1330 M⁻¹ s⁻¹ | 1950 M⁻¹ s⁻¹ |  |  | Cc1noc(NC(=O)N2CCC3(CC2)CC(c2ccc(OCc4ccccc4Cl)c(Cl)c2)CO3)c1C (single isomer, unassigned) [Example 44, 3-{3-chloro-4-[(2-chlorobenzyl)oxy]phenyl}-N-(3,4-dimethylisoxazol-5-yl)-1-oxa-8-azaspiro[4.5]decane-8-carboxamide] | (+) |  |
|  |  | 5110 M⁻¹ s⁻¹ | 1500 M⁻¹ s⁻¹ | Cn1nnnc1NC(=O)N1CCC2(CC1)CC(c1noc(-c3ccc(C(F)(F)F)cc3)n1)CO2 (single isomer, unassigned) [Example 82, N-(1-methyl-1H-tetrazol-5-yl)-3-{5-[4-(trifluoromethyl)phenyl]-1,2,4-oxadiazol-3-yl}-1-oxa-8-azaspiro[4.5]decane-8-carboxamide] | (+) |  |
|  |  | 2350 M⁻¹ s⁻¹ | 2160 M⁻¹ s⁻¹ | Cc1noc(NC(=O)N2CCC3(CC2)C[C@@H](c2cccc(-c4ccc(OC(F)(F)F)cc4)c2)CO3)c1C [Example 63, (3S)—N-(3,4-dimethylisoxazol-5-yl)-3-[4′-(trifluoromethoxy)biphenyl-3-yl]-1-oxa-8-azaspiro[4.5]decane-8-carboxamide] | (+) |  |
| 5600 M⁻¹ s⁻¹ | 1970 M⁻¹ s⁻¹ |  |  | Cn1nnnc1NC(=O)N1CCC2(CC1)CC(c1cccc(Cl)c1)CO2 (single isomer, unassigned) [Example 79, 3-(3-chlorophenyl)-N-(1-methyl-1H-tetrazol-5-yl)-1-oxa-8-azaspiro[4.5]decane-8-carboxamide] | (+) |  |
|  |  | 1610 M⁻¹ s⁻¹ | 2110 M⁻¹ s⁻¹ | Cc1noc(NC(=O)N2CCC3(CC2)C[C@@H](c2cccc(-c4ccc(F)c(F)c4)c2)CO3)c1C [Example 57, (3S)-3-(3′,4′-difluorobiphenyl-3-yl)-N-(3,4-dimethylisoxazol-5-yl)-1-oxa-8-azaspiro[4.5]decane-8-carboxamide] | (+) |  |
|  |  | 32600 M⁻¹ s⁻¹ | 25000 M⁻¹ s⁻¹ | Cn1nnnc1NC(=O)N1CCC2(CC1)C[C@H](c1ccc(OCc3ccc(F)c(F)c3)cc1)CO2 [Example 88, (3R)-3-{4-[(3,4-difluorobenzyl)oxy]phenyl}-N-(1-methyl-1H-tetrazol-5-yl)-1-oxa-8-azaspiro[4.5]decane-8-carboxamide] | (+) |  |
|  |  | 3420 M⁻¹ s⁻¹ | 4070 M⁻¹ s⁻¹ | Cc1noc(NC(=O)N2CCC3(CC2)CC(c2cccc(OC(F)(F)F)c2)CO3)c1C (single isomer, unassigned) [Example 33, N-(3,4-dimethylisoxazol-5-yl)-3-[3-(trifluoromethoxy)phenyl]-1-oxa-8-azaspiro[4.5]decane-8-carboxamide] | (+) |  |
|  |  | 2890 M⁻¹ s⁻¹ | 526 M⁻¹ s⁻¹ | O=C(Nc1cccnc1)N1CCC2(CC1)C[C@H](c1cccc(Oc3ccc(Br)cn3)c1)CO2 [Example 7, (3R)-3-{3-[(5-bromopyridin-2-yl)oxy]phenyl}-N-pyridin-3-yl-1-oxa-8-azaspiro[4.5]decane-8-carboxamide] | (+) |  |
|  |  | 3130 M⁻¹ s⁻¹ | 1880 M⁻¹ s⁻¹ | O=C(Nc1cccnn1)N1CCC2(CC1)CC(c1cccc(Oc3ccc(C(F)(F)F)cn3)c1)CO2 (racemic) [Example 1, (3RS)—N-pyridazin-3-yl-3-(3-{[5-(trifluoromethyl)pyridin-2-yl]oxy}phenyl)-1-oxa-8-azaspiro[4.5]decane-8-carboxamide] |  | (+)^d |
|  |  | 1920 M⁻¹ s⁻¹ | 3030 M⁻¹ s⁻¹ | CCc1noc(NC(=O)N2CCC3(CC2)CC(c2ccc(Cl)c(Cl)c2)CO3)c1C (single isomer, unassigned) [Example 68, 3-(3,4-dichlorophenyl)-N-(3-ethyl-4-methylisoxazol-5-yl)-1-oxa-8-azaspiro[4.5]decane-8-carboxamide] | (+) |  |
| 7100 M⁻¹ s⁻¹ | 3840 M⁻¹ s⁻¹ |  |  | Cn1nnnc1NC(=O)N1CCC2(CC1)CC(c1cccc(OC(F)(F)F)c1)CO2 (single isomer, unassigned) [Example 78, N-(1-methyl-1H-tetrazol-5-yl)-3-[3-(trifluoromethoxy)phenyl]-1-oxa-8-azaspiro[4.5]decane-8-carboxamide] | (+) |  |
|  |  | 4250 M⁻¹ s⁻¹ | 1500 M⁻¹ s⁻¹ | Cc1noc(NC(=O)N2CCC3(CC2)CC(c2noc(-c4ccc(OC(F)(F)F)cc4)n2)CO3)c1C (single isomer, unassigned) [Example 72, N-(3,4-dimethylisoxazol-5-yl)-3-{5-[4-(trifluoromethoxy)phenyl]-1,2,4-oxadiazol-3-yl}-1-oxa-8-azaspiro[4.5]decane-8-carboxamide] | (+) |  |
|  |  | 4890 M⁻¹ s⁻¹ | 11200 M⁻¹ s⁻¹ | Cn1nnnc1NC(=O)N1CCC2(CC1)C[C@H](c1cccc(Oc3ccc(Cl)cn3)c1)CO2 [Example 81, 3-{3-[(5-chloropyridin-2-yl)oxy]phenyl}-N-(1-methyl-1H-tetrazol-5-yl)-1-oxa-8-azaspiro[4.5]decane-8-carboxamide] | (+) |  |
| 11400 M⁻¹ s⁻¹ | 5520 M⁻¹ s⁻¹ |  |  | Cn1nnnc1NC(=O)N1CCC2(CC1)CC(c1cccc(Cl)c1)CO2 (single isomer, unassigned) [Example 80, 3-(3-chlorophenyl)-N-(1-methyl-1H-tetrazol-5-yl)-1-oxa-8-azaspiro[4.5]decane-8-carboxamide] | (+) |  |
| 4490 M⁻¹ s⁻¹ | 6920 M⁻¹ s⁻¹ |  |  | Cc1noc(NC(=O)N2CCC3(CC2)CC(c2ccc(OCc4cccc(Cl)c4)c(Cl)c2)CO3)c1C (single isomer, unassigned) [Example 46, 3-{3-chloro-4-[(3-chlorobenzyl)oxy]phenyl}-N-(3,4-dimethylisoxazol-5-yl)-1-oxa-8-azaspiro[4.5]decane-8-carboxamide] | (+) |  |
|  |  | 8420 M⁻¹ s⁻¹ | 1500 M⁻¹ s⁻¹ | Cn1nnnc1NC(=O)N1CCC2(CC1)CC(c1noc(-c3ccc(OC(F)(F)F)cc3)n1)CO2 (single isomer, unassigned) [Example 84, N-(1-methyl-1H-tetrazol-5-yl)-3-{5-[4-(trifluoromethoxy)phenyl]-1,2,4-oxadiazol-3-yl}-1-oxa-8-azaspiro[4.5]decane-8-carboxamide] | (+) |  |
|  |  | 10100 M⁻¹ s⁻¹ | 6170 M⁻¹ s⁻¹ | Cc1noc(NC(=O)N2CCC3(CC2)C[C@@H](c2ccc(OCc4ccc(F)c(F)c4)cc2)CO3)c1C [Example 52, (3S)-3-{4-[(3,4-difluorobenzyl)oxy]phenyl}-N-(3,4-dimethylisoxazol-5-yl)-1-oxa-8-azaspiro[4.5]decane-8-carboxamide] | (+) |  |
